Here are results for five compounds from patent US20100255598A1, “Medication Adherence Monitoring System” (priority 2007, published 2010).

The subject of data set [1] is alcohol dehydrogenase (ADH). The data set can be described thus: Breath ketone:alcohol ratio after 2° alcohol taggant. The settings on record: breath concentrations. In kind it is in vivo. As for the experimental part: The presence (and persistence) of their corresponding ketones (EDIMs) in exhaled breath represents definitive proof of ingestion of a medication containing 2° alcohols (or a 2° alcohol-based ester, carbonate ester, ketal, etc.) as taggants. In general due to increased steric hindrance, 2° alcohols are not as good substrates for ADH relative to 1° alcohols. Likewise, the enzymatic pathways to degrade alcohol-derived ketones appear less efficient than those for alcohol-derived aldehydes.

Another data set has as its system alcohol dehydrogenase. To be noted: cited from earlier work.
In another data set the target is T1, CYP1A2 (Homo sapiens, UniProt P05177).
T1 sequence (P05177 1-516): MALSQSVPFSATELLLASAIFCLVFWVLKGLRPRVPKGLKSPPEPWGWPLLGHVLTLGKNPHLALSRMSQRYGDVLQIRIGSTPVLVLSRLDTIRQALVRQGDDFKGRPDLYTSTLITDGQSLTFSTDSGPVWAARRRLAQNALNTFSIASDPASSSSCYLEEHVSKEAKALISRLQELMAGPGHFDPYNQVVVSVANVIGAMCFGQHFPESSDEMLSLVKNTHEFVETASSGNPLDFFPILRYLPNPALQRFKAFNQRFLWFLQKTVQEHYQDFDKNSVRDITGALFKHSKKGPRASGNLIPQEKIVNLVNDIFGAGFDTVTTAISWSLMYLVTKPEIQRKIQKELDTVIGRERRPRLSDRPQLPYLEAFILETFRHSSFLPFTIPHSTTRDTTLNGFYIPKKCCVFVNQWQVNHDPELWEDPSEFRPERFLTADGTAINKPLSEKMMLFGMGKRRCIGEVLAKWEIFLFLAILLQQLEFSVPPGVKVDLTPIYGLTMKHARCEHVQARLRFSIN
The settings on record: given orally to humans; cited from earlier work.

The next data set addresses CYP 2D6 (Homo sapiens, UniProt P10635). To be noted: via CYP 2D6; cited from earlier work.
The conditions of data set [2]: at 37° C.; cited from earlier work.

SMILES strings stand for the structures. Where two headings read alike, the source gives them in different places.

Sequence of CYP 2D6 (P10635 whole entry): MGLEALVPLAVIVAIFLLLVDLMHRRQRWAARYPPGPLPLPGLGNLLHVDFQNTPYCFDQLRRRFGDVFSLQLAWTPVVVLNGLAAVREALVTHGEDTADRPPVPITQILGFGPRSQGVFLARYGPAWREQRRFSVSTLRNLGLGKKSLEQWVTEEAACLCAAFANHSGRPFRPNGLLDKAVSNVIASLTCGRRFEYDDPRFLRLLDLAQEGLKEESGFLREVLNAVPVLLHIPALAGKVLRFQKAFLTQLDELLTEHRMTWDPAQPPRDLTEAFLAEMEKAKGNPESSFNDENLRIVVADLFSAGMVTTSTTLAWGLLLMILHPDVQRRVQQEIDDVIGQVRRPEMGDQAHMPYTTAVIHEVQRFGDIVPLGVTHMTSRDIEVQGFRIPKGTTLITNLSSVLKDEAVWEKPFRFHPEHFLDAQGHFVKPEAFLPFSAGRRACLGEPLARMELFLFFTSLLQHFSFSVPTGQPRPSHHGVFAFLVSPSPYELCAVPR

Consider `CCC(C)=O` [2-butanone], for which the “ketone:alcohol ratio 2-butanone/2-butanol” value in data set [1] is listed as above 1.

Take `CO` [Methanol, methanol]: the “half life in the blood” value was 1.8 to 3.0 h in the data set with alcohol dehydrogenase (in the absence of alcohol) and 8 to 24 h in the data set on alcohol dehydrogenase (in the presence of alcohol).

Take `Cn1c(=O)c2c(ncn2C)n(C)c1=O` [caffeine]: the “fraction converted to theophylline” value at CYP1A2 was “Approximately 80%”.

For the compound `COc1ccc2c3c1O[C@H]1[C@@H](O)C=C[C@H]4[C@@H](C2)N(C)CC[C@@]341` [codeine], at CYP 2D6, the “fraction converted to morphine in vivo” value was “about 10%”.

Take `CC(C)c1cccc(C(C)C)c1O` [propofol]: in data set [2], the vapor pressure was around 0.2 mmHg.
